Measured values from US20160067187A1, “Methods for Treating or Preventing Migraines” (Validus Pharmaceuticals LLC, priority 2005, published 2016).

Assays:
[1] = human, in vivo, inhaled or intranasal, 10 mg
[2] = test system: patients suffering from migraine without aura; assay: Double blind, randomized, placebo-controlled study in migraine without aura (Example 3); type: in vivo, human; settings: 10 mg to 40 mg per day, oral
Description: (§1) A total of 16 patients participate in the study in […]. The age of the recruited patients ranges between 18 years and 75 years. Both male and female patients are selected for the study. Recruitment period for the study is 5 months.
(§2) Isocarboxazid is prescribed as a prophylaxis to one group of patients. Also, isocarboxazid is prescribed after the expression of symptoms to another group of patients. […] Dose increments are based on the investigator's judgment of the patient's response. After 4 weeks of therapy on 20 mg per day, the doses may be increased to 30 mg per day, 10 mg in the AM and 20 mg in the PM. After 4 weeks of therapy on 30 mg per day, doses may be increased to 40 mg per day, 20 mg in the AM and 20 mg in the PM. After 4 weeks of 40 mg per day, the doses may be increased to 50 mg per day, 20 mg in the AM and 30 mg in the PM. After 4 weeks of 50 mg per day, the doses may be increased to 60 mg per day, 30 mg in the AM and 30 mg in the PM. The duration of the medication treatment is a total of 20 weeks.
Patients in the study are diagnosed for the symptoms of migraine without aura. Diagnosis is performed according to the criteria set forth by the International Headache Society. […]
(§3) In order to determine the efficacy of isocarboxazid, pain intensity is evaluated on an assessment scale and recoded in an assessment sheet. […]
(§4) The collected data are statistically analyzed.

[3] = test system: patients with tension-type headaches; assay: Study of treatment of chronic tension-type headache (Example 5); type: in vivo, human
Description: (§5) This study is designed to evaluate the efficacy of isocarboxazid in preventing migraines and in the treatment of chronic tension-type headache.
(§6) A total of 61 patients suffering from chronic tension-type headache are recruited. […] While on this therapy, 35 of the 42 migraine patients and 16 of the 17 patients with tension-type headaches are experiencing good or very good improvement in their symptoms. […] In tension-type headaches, the effect may occur at the earliest 3-6 weeks and in the case of migraines at the earliest 6-8 weeks after the start of treatment. The therapeutic result is independent of any concurrent depression.

migraine patients = assay: Study of preventing migraines (Example 5); type: in vivo, human
Description: as §5, §6

acute migraine headaches = assay: Double blind, placebo-controlled single dose study in acute migraine headaches (Example 4); type: in vivo, human; settings: 20 and 40 mg single doses; after 2 hrs and 24 hours
Procedure: A double blind, multicenter, randomized, placebo-controlled single dose study to evaluate the efficacy of isocarboxazid in the treatment of acute migraine headaches is conducted.
The study consists of a screening visit, at home treatment of a single migraine attack, and a follow up visit 1-5 days following treatment. In addition to safety evaluations, the patients are evaluated for efficacy based on superiority over the placebo at 2 hour and 24 hour periods
after dosing for a) pain relief; b) incidence of photophobia; c) incidence of phonophobia; and d) incidence of nausea.
The results are collected from 30 patients.

[4] = test system: patients suffering from migraine with aura; assay: Double blind, randomized, placebo-controlled study in migraine with aura (Example 2); type: in vivo, human; settings: 10 mg to 40 mg per day, oral
Procedure: A double blind, multicenter, randomized, placebo-controlled study is performed to evaluate the efficacy of isocarboxazid in treating patients suffering from migraine with aura.
as §1
as §2, with “weeks. […]” for “weeks.”
as §3, §4

[5] = test system: subjects with migraine headache; assay: Open-label pilot study of safety, effectiveness and tolerability in the prophylactic treatment of migraine (Example 1); type: in vivo, human
Procedure: An open-label pilot study was performed to evaluate the safety, effectiveness and tolerability of the MAOI isocarboxyzid (Marplan®) in the prophylactic treatment of migraine.
Male and female subjects 18-60 years of age were recruited. […] The subject must have had approximately 3-12 migraine headaches per month for the 3 months prior to entering the screening period. Major exclusion criteria included a history of cluster headache, migraine with prolonged aura, and atypical forms of migraine. […] Concomitant use of tryptans, NSAID's, antidepressants and other commonly used ant-migraine agents was prohibited. The Headache Assessment Scale and other assessments were recorded at Baseline and Weeks 1, 4, 8, 12, 16 and 20. Primary safety and efficacy analysis were based on the intention-to-treat population. Safety data included laboratory data, adverse events, vital signs, and ECG's. The primary efficacy measure was within-subject change from baseline in migraine frequency.
Fourteen subjects had at least on post-baseline assessment, and seven subjects completed the full 20 weeks of treatment (Table 1a,b). […] Five subjects (31%) withdrew due to adverse events. […] The mean does for completers at the end of study was 38.6 mg (Table 2). […] At baseline, subjects reported an average migraine frequency of 5.2 +1.9 attacks/month. […] At week 20, a frequency of 0.4±0.7 (p<0.001) was observed. […] Because of the small number of subjects and relatively high dropout rate, an analysis of the data using a Last Observation Carried Forward (LOF) procedure was undertaken.

In the case of `Cc1cc(C(=O)NNCc2ccccc2)no1` [isocarboxazid], the “share of the maximum plasma concentration (Cmax) reached at 30 minutes after administration” value [1] is reported as 60%, the “effect versus placebo in treating and preventing migraine without aura” value [2] is reported as “superior effect over the placebo” and the “earliest occurrence of the effect after the start of treatment” value [3] is reported as 3-6 weeks. For the same compound, the “patients experiencing good or very good improvement in their symptoms” value ([3]; 10 to 60 mg daily dose, about 8 months on average) was 16 of the 17, the “patients experiencing good or very good improvement in their symptoms” value (migraine patients; migraine patients, 10 to 60 mg daily dose, about 8 months on average) was 35 of the 42 and the “earliest occurrence of the effect after the start of treatment” value (migraine patients; migraines) was 6-8 weeks. The “effect versus placebo in treating acute headaches” value (acute migraine headaches) was “superior effect over a placebo”, the “effect versus placebo in treating and preventing migraine with aura” value [4] was “superior effect over the placebo” and the “Discontinued (Lack of efficacy), number of subjects (%)” value ([5]; 16 subjects at baseline visit, 20 weeks) was 0 (0%). The “Change from baseline (mean ± SD) in migraine frequency” value ([5]; LOCF, n 14, p-value 7.0 × 10^−6) was 3.8 ± 2.8, the “Change from baseline (mean ± SD) in migraine frequency” value ([5]; Observed cases, n 7, p-value 1.5 × 10^−7) was 5.9 ± 1.5 and the “reduction in migraine frequency during the course of treatment” value ([5]; all subjects) was “significant reduction”. The “Adverse Event: Anxiety, Number” value ([5]; both, human, in vivo, 20 weeks) was 1, the “Adverse Event: Fatigue, Number” value ([5]; both, human, in vivo, 20 weeks) was 2 and the “Adverse Event: Insomnia, Number” value ([5]; both, human, in vivo, 20 weeks) was 1. For the same compound, the “Adverse Event: Nosebleed, Number” value ([5]; both, human, in vivo, 20 weeks) was 1, the “Discontinued (Adverse Experience), number of subjects (%)” value ([5]; both, human, in vivo, 20 weeks) was 5 (31%) and the “subjects who withdrew due to adverse events” value ([5]; both, human, in vivo, 20 weeks) was 31%. For the same compound, the “reduction in migraine frequency (clinically significant response) reached by all completers” value ([5]; by week 16, all subjects completing the study, FIG. 3) was no less than 50%, the “maximum dose tolerated by most subjects” value ([5]; most subjects, FIG. 1, titrated from 20 mg per day up to 60 mg per day) was 20 to 40 mg/day and the “reductions in migraine frequency by week 8” value ([5]; week 8, FIG. 2) was “significant reductions”. The “migraine frequency at week 20” value ([5]; week 20, baseline 5.2 +1.9 attacks/month, p<0.001) was 0.4±0.7 attacks/month.
